According to patent US20230117606A1, “COMPOSITIONS AND METHODS FOR THE TREATMENT OF INTRACELLULAR BACTERIAL INFECTIONS” (Endolytix Technology, Inc., priority 2020, published 2023):

System: M. abscessus
Test: Cell growth assay of M. abscessus with ABIα and antibiotic, Fractional Inhibitory Concentration (FIC) index
Type: cell-based, Mycobacterium abscessus
Conditions: antibiotic in combination with ABIα; FIG. 5

Row | Structure (SMILES) | effect by FIC index on attenuation of M. abscessus growth
1 | NCC[C@H](O)C(=O)N[C@@H]1C[C@H](N)[C@@H](O[C@H]2O[C@H](CN)[C@@H](O)[C@H](O)[C@H]2O)[C@H](O)[C@H]1O[C@H]1O[C@H](CO)[C@@H](O)[C@H](N)[C@H]1O [amikacin] | synergistic effects
2 | C[C@@H](O)[C@H]1C(=O)N2C(C(=O)[O-])=C(SC3Cn4cnc[n+]4C3)[C@H](C)[C@H]12 (stereo partly drawn) [biapenem] | synergistic effects
3 | CO[C@@]1(NC(=O)Cc2cccs2)C(=O)N2C(C(=O)O)=C(COC(N)=O)CS[C@@H]21 [cefoxitin] | synergistic effects
